Data reported in patent EP0319906A2, “Novel quinoline derivatives, processes for preparation thereof and antibacterial agent containing them” (Dainippon Pharmaceutical Co., Ltd., priority 1987, dated 1989).
≈ marks a conversion by molar mass, not a printed value.

Legend:
Type in all cases: cell-based
E. coli NIHJ JC-2 = test: In vitro antibacterial activity, twofold agar-dilution MIC; conditions: Escherichia coli, NIHJJC2; E. coli NIHJ JC-2; Mueller-Hinton agar, 20-hour incubation at 37 °C; calculated for free base; read-out: minimum inhibitory concentrations (MIC)
Procedure: (§1) The figures in the table show minimum inhibitory concentrations (MIC) (µg/ml), calculated for free base. […] One loopful of an overnight culture of test organisms in Mueller-Hinton broth was inoculated onto 10 ml drug- containing agar layers in petri dishes. Bacterial inocula contained approximately 10⁶ colonyl-forming units. […] The MIC was defined as the lowest drug concentration which prevented visible bacterial growth.

E. coli P-5101 = test: as above; conditions: Escherichia coli, P5101; E. coli P-5101; Mueller-Hinton agar, 20-hour incubation at 37 °C; calculated for free base; read-out: minimum inhibitory concentrations (MIC)
Procedure: as §1

P. aeruginosa 12 = test: as above; conditions: Pseudomonas aeruginosa; P. aeruginosa 12; Mueller-Hinton agar, 20-hour incubation at 37 °C; calculated for free base; read-out: minimum inhibitory concentrations (MIC)
Procedure: as §1

S. aureus 209 JC-1 = test: as above; conditions: Staphylococcus aureus, 209JC1; S. aureus 209 JC-1; Mueller-Hinton agar, 20-hour incubation at 37 °C; calculated for free base; read-out: minimum inhibitory concentrations (MIC)
Procedure: as §1

S. aureus No. 80 = test: as above; conditions: Staphylococcus aureus; S. aureus No. 80; Mueller-Hinton agar, 20-hour incubation at 37 °C; calculated for free base; read-out: minimum inhibitory concentrations (MIC)
Procedure: as §1

S. aureus Terajima = test: as above; conditions: Staphylococcus aureus; S. aureus Terajima; Mueller-Hinton agar, 20-hour incubation at 37 °C; calculated for free base; read-out: minimum inhibitory concentrations (MIC)
Procedure: as §1

S. epidermidis No. 8 = test: as above; conditions: Staphylococcus epidermidis; S. epidermidis No. 8; Mueller-Hinton agar, 20-hour incubation at 37 °C; calculated for free base; read-out: minimum inhibitory concentrations (MIC)
Procedure: as §1

S. marcescens S-9 = test: as above; conditions: Serratia marcescens, S9; S. marcescens S-9; Mueller-Hinton agar, 20-hour incubation at 37 °C; calculated for free base; read-out: minimum inhibitory concentrations (MIC)
Procedure: as §1

S. pyogenes A65 = test: as above; conditions: Streptococcus pyogenes; S. pyogenes A65; Mueller-Hinton agar, 20-hour incubation at 37 °C; calculated for free base; read-out: minimum inhibitory concentrations (MIC)
Procedure: as §1

[1] = system: C. Trachomatics G/ur 1242; test: Antichlamydia activity, MIC in McCoy cells (inclusion bodies); conditions: C. Trachomatics G/ur 1242; McCoy cells, 36 °C for 40-48 hours; calculated for free base; read-out: minimum inhibitory concentrations (MIC)
Procedure: (§2) The figures in the table show minimum inhibitory concentrations (MIC), (μg/ml), calculated for free base. Minimum inhibitory concentrations (MIC) were determined as follows. […] The cells were trypsinized and suspended in the same culture medium at a cell concentration of 1-2 x 10^5 cells/ml. One ml of the cell suspension was pipetted into flat-bottomed plastic tubes (14 mm in diameter) containing a cover slip (12 mm in diameter). The tubes were incubated in 5 % CO2-air at 36 °C for 20 hours. One-half ml of a chlamydial suspension (ca. 1-4 x 103 inclusion body forming units) was added into each tube, which was then centrifuged at 1500 x g for 60 minutes. The tubes were incubated for 1 hour at 36 °C. […] After further incubation at 36 °C for 40-48 hours, the cells on the cover glasses were stained with the Giemsa's solution. […] The MIC was defined as the lowest drug concentration where there were no inclusion bodies in all the cells on the cover slip.

[2] = system: C. Trachomatics G/ur 1317; test: as above; conditions: C. Trachomatics G/ur 1317; McCoy cells, 36 °C for 40-48 hours; calculated for free base; read-out: minimum inhibitory concentrations (MIC)
Procedure: as §2

[3] = system: C. Trachomatics G/ur 1448; test: as above; conditions: C. Trachomatics G/ur 1448; McCoy cells, 36 °C for 40-48 hours; calculated for free base; read-out: minimum inhibitory concentrations (MIC)
Procedure: as §2

C. Trachomatics G/ur 931 = test: as above; conditions: C. Trachomatics G/ur 931; McCoy cells, 36 °C for 40-48 hours; calculated for free base; read-out: minimum inhibitory concentrations (MIC)
Procedure: as §2

A. laidlawii PG-8 = test: Antimycoplasma activity, twofold agar dilution MIC; conditions: Acholeplasma laidlawii, PG8, 48 h; A. laidlawii PG-8; Chanock agar, 37 °C for 2 days, aerobically; calculated for free base; read-out: minimum inhibitory concentrations (MIC)
Procedure: (§3) The figures in the table show minimum inhibitory concentrations (MIC), (μg/ml), calculated for free base. Minimum inhibitory concentrations (MIC) were determined by the twofold agar dilution method. The media used were Chanock broth and agar [PPLD broth and agar (Difco) supplemented with 20 % horse serum and 10 % fresh yeast extract]. A 2-3 day broth culture of organisms was diluted with Chanock broth to a cell density of about 10^6 cells/ml. One loopful (about […]) of the organism dilution was spotted onto 10-ml drug containing Chanock agar in petri dishes using a multiple inoculator ([…] International). […] Incubation was performed anaerobically using the […] anaerobic system (BBL) for M. buccale, M. fermentans, M. hominis, M. orale and M. salivarium, and aerobically for other Mycoplasma spp. The MIC was defined as the lowest compound concentration at which no growth of organism was detected.

M. arginini G-230 = test: Antimycoplasma activity, twofold agar dilution MIC; conditions: 48 h; M. arginini G-230; Chanock agar, 37 °C for 2 days, aerobically; calculated for free base; read-out: minimum inhibitory concentrations (MIC)
Procedure: as §3

M. buccale CH-20249 = test: Antimycoplasma activity, twofold agar dilution MIC; conditions: 48 h; M. buccale CH-20249; Chanock agar, 37 °C for 2 days, anaerobically; calculated for free base; read-out: minimum inhibitory concentrations (MIC)
Procedure: as §3

M. fermentans PG-18 = test: Antimycoplasma activity, twofold agar dilution MIC; conditions: Mycoplasmopsis fermentans, PG18, 48 h; M. fermentans PG-18; Chanock agar, 37 °C for 2 days, anaerobically; calculated for free base; read-out: minimum inhibitory concentrations (MIC)
Procedure: as §3

M. hominis PG-21 = test: Antimycoplasma activity, twofold agar dilution MIC; conditions: Metamycoplasma hominis, PG21, 48 h; M. hominis PG-21; Chanock agar, 37 °C for 2 days, anaerobically; calculated for free base; read-out: minimum inhibitory concentrations (MIC)
Procedure: as §3

M. hyorhinis BST-7 = test: Antimycoplasma activity, twofold agar dilution MIC; conditions: Mesomycoplasma hyorhinis, BST7, 48 h; M. hyorhinis BST-7; Chanock agar, 37 °C for 2 days, aerobically; calculated for free base; read-out: minimum inhibitory concentrations (MIC)
Procedure: as §3

M. orale CH-19299 = test: Antimycoplasma activity, twofold agar dilution MIC; conditions: po, 48 h; M. orale CH-19299; Chanock agar, 37 °C for 2 days, anaerobically; calculated for free base; read-out: minimum inhibitory concentrations (MIC)
Procedure: as §3

M. pneumoniae Mac = test: Antimycoplasma activity, twofold agar dilution MIC; conditions: Mycoplasmoides pneumoniae, 168 h; M. pneumoniae Mac; Chanock agar, 37 °C for 7 days, aerobically; calculated for free base; read-out: minimum inhibitory concentrations (MIC)
Procedure: as §3

M. salivarium PG-20 = test: Antimycoplasma activity, twofold agar dilution MIC; conditions: 48 h; M. salivarium PG-20; Chanock agar, 37 °C for 2 days, anaerobically; calculated for free base; read-out: minimum inhibitory concentrations (MIC)
Procedure: as §3

C[C@@H]1CN(c2c(F)cc3c(=O)c(C(=O)O)cn(C4CC4)c3c2F)C[C@H](C)N1 [Compound C, 1-cyclopropyl-6,8-difluoro-7-(cis-3,5-dimethyl-1-piperazinyl)-1,4-dihydro-4-oxoquinoline-3-carboxylic acid]
MIC (E. coli NIHJ JC-2): 0.0125 µg/mL (≈ 0.0331 µM)
MIC (E. coli P-5101): 0.0125 µg/mL (≈ 0.0331 µM)
MIC (P. aeruginosa 12): 0.78 µg/mL (≈ 2.07 µM)
MIC (S. aureus 209 JC-1): 0.1 µg/mL (≈ 0.265 µM)
MIC (S. aureus No. 80): 0.1 µg/mL (≈ 0.265 µM)
MIC (S. aureus Terajima): 0.1 µg/mL (≈ 0.265 µM)
MIC (S. epidermidis No. 8): 0.1 µg/mL (≈ 0.265 µM)
MIC (S. marcescens S-9): 0.2 µg/mL (≈ 0.53 µM)
MIC (S. pyogenes A65): 0.78 µg/mL (≈ 2.07 µM)
MIC [1]: 0.2 µg/mL (≈ 0.53 µM)
MIC [2]: 0.2 µg/mL (≈ 0.53 µM)
MIC [3]: 0.2 µg/mL (≈ 0.53 µM)
MIC (C. Trachomatics G/ur 931): 0.2 µg/mL (≈ 0.53 µM)
MIC (A. laidlawii PG-8): 0.39 µg/mL (≈ 1.03 µM)
MIC (M. arginini G-230): 0.39 µg/mL (≈ 1.03 µM)
MIC (M. buccale CH-20249): 0.2 µg/mL (≈ 0.53 µM)
MIC (M. fermentans PG-18): 0.1 µg/mL (≈ 0.265 µM)
MIC (M. hominis PG-21): 0.2 µg/mL (≈ 0.53 µM)
MIC (M. hyorhinis BST-7): 0.1 µg/mL (≈ 0.265 µM)
MIC (M. orale CH-19299): 0.78 µg/mL (≈ 2.07 µM)
MIC (M. pneumoniae Mac): 0.2 µg/mL (≈ 0.53 µM)
MIC (M. salivarium PG-20): 0.78 µg/mL (≈ 2.07 µM)
